Laboratory results published in US20220251141A1, “IMMUNOMODULATORS” (Bristol-Myers Squibb Company, priority 2019, published 2022).
pIC50: −log10 of the molar value. One block for each compound: values may come before it. Numbered stars: 1 amine (or outer) side, 2 acyl side, 3 side chain; on linkers, the order of the positions; unused ones are H or OH. Bridge positions count the residues as written; N and C are the ends. Square brackets hold non-standard residues; d marks the D form. Peptide text beside a SMILES is read from it. * marks the point of attachment. Trp(1-CH2CO2Me) = COC(=O)Cn1cc(C[C@H](N)C(=O)O)c2ccccc21; Trp(1-CH2COOH) = N[C@@H](Cc1cn(CC(=O)O)c2ccccc12)C(=O)O; X5 = CN(C)S(=O)(=O)NCC[C@H](N[*:1])C(=O)[*:2]; X4 = CN(C)S(=O)(=O)NC[C@H](N[*:1])C(=O)[*:2]; X15 = CCNC(=S)NCC[C@H](N[*:1])C(=O)[*:2]; X14 = CCNC(=S)NC[C@H](N[*:1])C(=O)[*:2]; Dab(CONH2) = NC(=O)NCC[C@H](N)C(=O)O; X9 = N#CNCC[C@H](N[*:1])C(=O)[*:2]; X8 = N#CNC[C@H](N[*:1])C(=O)[*:2]; Hyp = O=C(O)[C@@H]1C[C@@H](O)CN1; NMeNle = CCCC[C@H](NC)C(=O)O; NMeA = CN[C@@H](C)C(=O)O; Dab = NCC[C@H](N)C(=O)O; Dap = NC[C@H](N)C(=O)O; Boc = CC(C)(C)OC(=O)*; X10 = CC(C)(C)SC(=O)*; Moc = COC(=O)*

Molecular target: T1, PD-1/PD-L1 (Homo sapiens, UniProt Q9NZQ7)
T1 construct: TVMV protease site linker (C); made in house; host or cells: HEK293T cells
Assay: PD-1/PD-L1 Homogenous Time-Resolved Fluorescence (HTRF) binding assay
Conditions: PD-L1-His 10 nM final, PD-1-Ig 20 nM final; inhibitors pre-incubated with PD-L1-His for 15 m
From the text: The ability of the compounds of formula (I) to bind to PD-L1 was investigated using a PD-1/PD-L1 Homogenous Time-Resolved Fluorescence (HTRF) binding assay.
The interaction of PD-1 and PD-L1 can be assessed using soluble, purified preparations of the extracellular domains of the two proteins. The PD-1 and PD-L1 protein extracellular domains were expressed as fusion proteins with detection tags, for PD-1, the tag was the Fc portion of Immunoglobulin (PD-1-Ig) and for PD-L1 it was the 6 histidine motif (PD-L1-His). All binding studies were performed in an HTRF assay buffer consisting of dPBS supplemented with 0.1% […] bovine serum albumin and 0.05% (v/v) Tween-20. For the h/PD-L1-His binding assay, inhibitors were pre-incubated with PD-L1-His (10 nM final) for 15 m in 4 μl of assay buffer, followed by addition of PD-1-Ig (20 nM final) in 1 μl of assay buffer and further incubation for 15 m. HTRF detection was achieved using europium cryptate-labeled anti-Ig (1 nM final) and allophycocyanin (APC) labeled anti-His (20 nM final). Antibodies were diluted in HTRF detection buffer and 5 μl was dispensed on top of the binding reaction. The reaction mixture was allowed to equilibrate for 30 minutes and the resulting signal (665 nm/620 nm ratio) was obtained using an EnVision fluorometer. Additional binding assays were established between the human proteins PD-1-Ig/PD-L2-His (20 & 5 nM, respectively) and CD80-His/PD-L1-Ig (100 & 10 nM, respectively).
Recombinant Proteins: Human PD-1 (25-167) with a C-terminal human Fc domain of immunoglobulin G (Ig) epitope tag [hPD-1 (25-167)-3S-IG] and human PD-L1 (18-239) with a C-terminal His epitope tag [hPD-L1(18-239)-TVMV-His] were expressed in HEK293T cells and purified sequentially by Protein A affinity chromatography and size exclusion chromatography. Human PD-L2-His and CD80-His was obtained through commercial sources.
Table 3 lists the IC50 values for representative examples of this disclosure measured in the PD-1/PD-L1 Homogenous Time-Resolved Fluorescence (HTRF) binding assay.

SMILES: CCCC[C@H]1C(=O)N(C)[C@@H](CCCC)C(=O)N[C@@H](CC(C)C)C(=O)N[C@H](C(=O)NCC(N)=O)CSCC(=O)N[C@@H](Cc2ccc(O)cc2)C(=O)N(C)[C@@H](C)C(=O)N[C@@H](CC(N)=O)C(=O)N2CCC[C@H]2C(=O)N[C@@H](CNC(=O)OC)C(=O)N[C@@H](CC(C)C)C(=O)N2C[C@H](O)C[C@H]2C(=O)N[C@@H](Cc2c[nH]c3ccccc23)C(=O)N[C@@H](CCNC(=O)OC)C(=O)N[C@@H](Cc2cn(CC(=O)OC)c3ccccc23)C(=O)N1C [Example 1017] ({CH2CO}-Y[NMeA]NP[Dap](Moc)L[Hyp]W[Dab](Moc)[Trp(1-CH2CO2Me)][NMeNle][NMeNle]LCG-NH2; thioether N-14)
pIC50: 8.23

SMILES: CCCC[C@H]1C(=O)N(C)[C@@H](CCCC)C(=O)N[C@@H](CC(C)C)C(=O)N[C@H](C(=O)NCC(N)=O)CSCC(=O)N[C@@H](Cc2ccc(O)cc2)C(=O)N(C)[C@@H](C)C(=O)N[C@@H](CC(N)=O)C(=O)N2CCC[C@H]2C(=O)N[C@@H](CNC(=O)OC(C)(C)C)C(=O)N[C@@H](CC(C)C)C(=O)N2C[C@H](O)C[C@H]2C(=O)N[C@@H](Cc2c[nH]c3ccccc23)C(=O)N[C@@H](CCNC(N)=O)C(=O)N[C@@H](Cc2cn(CC(=O)O)c3ccccc23)C(=O)N1C [Example 1018] ({CH2CO}-Y[NMeA]NP[Dap](Boc)L[Hyp]W[Dab(CONH2)][Trp(1-CH2COOH)][NMeNle][NMeNle]LCG-NH2; thioether N-14)
pIC50: 8.54

SMILES: CCCC[C@H]1C(=O)N(C)[C@@H](CCCC)C(=O)N[C@@H](CC(C)C)C(=O)N[C@H](C(=O)NCC(N)=O)CSCC(=O)N[C@@H](Cc2ccc(O)cc2)C(=O)N(C)[C@@H](C)C(=O)N[C@@H](CC(N)=O)C(=O)N2CCC[C@H]2C(=O)N[C@@H](CNC#N)C(=O)N[C@@H](CC(C)C)C(=O)N2C[C@H](O)C[C@H]2C(=O)N[C@@H](Cc2c[nH]c3ccccc23)C(=O)N[C@@H](CCNC#N)C(=O)N[C@@H](Cc2cn(CC(=O)O)c3ccccc23)C(=O)N1C [Example 1019] ({CH2CO}-Y[NMeA]NP[X8]L[Hyp]W[X9][Trp(1-CH2COOH)][NMeNle][NMeNle]LCG-NH2; thioether N-14)
pIC50: 8.92

SMILES: CCCC[C@H]1C(=O)N(C)[C@@H](CCCC)C(=O)N[C@@H](CC(C)C)C(=O)N[C@H](C(=O)NCC(N)=O)CSCC(=O)N[C@@H](Cc2ccc(O)cc2)C(=O)N(C)[C@@H](C)C(=O)N[C@@H](CC(N)=O)C(=O)N2CCC[C@H]2C(=O)N[C@@H](CNC#N)C(=O)N[C@@H](CC(C)C)C(=O)N2C[C@H](O)C[C@H]2C(=O)N[C@@H](Cc2c[nH]c3ccccc23)C(=O)N[C@@H](CCNC#N)C(=O)N[C@@H](Cc2cn(CC(=O)OC)c3ccccc23)C(=O)N1C [Example 1020] ({CH2CO}-Y[NMeA]NP[X8]L[Hyp]W[X9][Trp(1-CH2CO2Me)][NMeNle][NMeNle]LCG-NH2; thioether N-14)
pIC50: 8.15

SMILES: CCCC[C@H]1C(=O)N(C)[C@@H](CCCC)C(=O)N[C@@H](CC(C)C)C(=O)N[C@H](C(=O)NCC(N)=O)CSCC(=O)N[C@@H](Cc2ccc(O)cc2)C(=O)N(C)[C@@H](C)C(=O)N[C@@H](CC(N)=O)C(=O)N2CCC[C@H]2C(=O)N[C@@H](CNC#N)C(=O)N[C@@H](CC(C)C)C(=O)N2C[C@H](O)C[C@H]2C(=O)N[C@@H](Cc2c[nH]c3ccccc23)C(=O)N[C@@H](CCN)C(=O)N[C@@H](Cc2cn(CC(=O)O)c3ccccc23)C(=O)N1C [Example 1021] ({CH2CO}-Y[NMeA]NP[X8]L[Hyp]W[Dab][Trp(1-CH2COOH)][NMeNle][NMeNle]LCG-NH2; thioether N-14)
pIC50: 7.28

Results, then the compound that gave them:

pIC50: 7.82
SMILES: CCCC[C@H]1C(=O)N(C)[C@@H](CCCC)C(=O)N[C@@H](CC(C)C)C(=O)N[C@H](C(=O)NCC(N)=O)CSCC(=O)N[C@@H](Cc2ccc(O)cc2)C(=O)N(C)[C@@H](C)C(=O)N[C@@H](CC(N)=O)C(=O)N2CCC[C@H]2C(=O)N[C@@H](CNS(=O)(=O)N(C)C)C(=O)N[C@@H](CC(C)C)C(=O)N2C[C@H](O)C[C@H]2C(=O)N[C@@H](Cc2c[nH]c3ccccc23)C(=O)N[C@@H](CCNS(=O)(=O)N(C)C)C(=O)N[C@@H](Cc2cn(CC(=O)O)c3ccccc23)C(=O)N1C [Example 1022] ({CH2CO}-Y[NMeA]NP[X4]L[Hyp]W[X5][Trp(1-CH2COOH)][NMeNle][NMeNle]LCG-NH2; thioether N-14)

pIC50: 8.17
SMILES: CCCC[C@H]1C(=O)N(C)[C@@H](CCCC)C(=O)N[C@@H](CC(C)C)C(=O)N[C@H](C(=O)NCC(N)=O)CSCC(=O)N[C@@H](Cc2ccc(O)cc2)C(=O)N(C)[C@@H](C)C(=O)N[C@@H](CC(N)=O)C(=O)N2CCC[C@H]2C(=O)N[C@@H](CNS(=O)(=O)N(C)C)C(=O)N[C@@H](CC(C)C)C(=O)N2C[C@H](O)C[C@H]2C(=O)N[C@@H](Cc2c[nH]c3ccccc23)C(=O)N[C@@H](CCN)C(=O)N[C@@H](Cc2cn(CC(=O)O)c3ccccc23)C(=O)N1C [Example 1023] ({CH2CO}-Y[NMeA]NP[X4]L[Hyp]W[Dab][Trp(1-CH2COOH)][NMeNle][NMeNle]LCG-NH2; thioether N-14)

pIC50: 8.33
SMILES: CCCC[C@H]1C(=O)N(C)[C@@H](CCCC)C(=O)N[C@@H](CC(C)C)C(=O)N[C@H](C(=O)NCC(N)=O)CSCC(=O)N[C@@H](Cc2ccc(O)cc2)C(=O)N(C)[C@@H](C)C(=O)N[C@@H](CC(N)=O)C(=O)N2CCC[C@H]2C(=O)N[C@@H](CNC(=O)SC(C)(C)C)C(=O)N[C@@H](CC(C)C)C(=O)N2C[C@H](O)C[C@H]2C(=O)N[C@@H](Cc2c[nH]c3ccccc23)C(=O)N[C@@H](CCNC(=O)OC)C(=O)N[C@@H](Cc2cn(CC(=O)O)c3ccccc23)C(=O)N1C [Example 1024] ({CH2CO}-Y[NMeA]NP[Dap](X10)L[Hyp]W[Dab](Moc)[Trp(1-CH2COOH)][NMeNle][NMeNle]LCG-NH2; thioether N-14)

pIC50: 8.22
SMILES: CCCC[C@H]1C(=O)N(C)[C@@H](CCCC)C(=O)N[C@@H](CC(C)C)C(=O)N[C@H](C(=O)NCC(N)=O)CSCC(=O)N[C@@H](Cc2ccc(O)cc2)C(=O)N(C)[C@@H](C)C(=O)N[C@@H](CC(N)=O)C(=O)N2CCC[C@H]2C(=O)N[C@@H](CNC(=O)SC(C)(C)C)C(=O)N[C@@H](CC(C)C)C(=O)N2C[C@H](O)C[C@H]2C(=O)N[C@@H](Cc2c[nH]c3ccccc23)C(=O)N[C@@H](CCNC(=O)SC(C)(C)C)C(=O)N[C@@H](Cc2cn(CC(=O)OC)c3ccccc23)C(=O)N1C [Example 1025] ({CH2CO}-Y[NMeA]NP[Dap](X10)L[Hyp]W[Dab](X10)[Trp(1-CH2CO2Me)][NMeNle][NMeNle]LCG-NH2; thioether N-14)

pIC50: 8.35
SMILES: CCCC[C@H]1C(=O)N(C)[C@@H](CCCC)C(=O)N[C@@H](CC(C)C)C(=O)N[C@H](C(=O)NCC(N)=O)CSCC(=O)N[C@@H](Cc2ccc(O)cc2)C(=O)N(C)[C@@H](C)C(=O)N[C@@H](CC(N)=O)C(=O)N2CCC[C@H]2C(=O)N[C@@H](CNC(=S)NCC)C(=O)N[C@@H](CC(C)C)C(=O)N2C[C@H](O)C[C@H]2C(=O)N[C@@H](Cc2c[nH]c3ccccc23)C(=O)N[C@@H](CCNC(=S)NCC)C(=O)N[C@@H](Cc2cn(CC(=O)O)c3ccccc23)C(=O)N1C [Example 1026] ({CH2CO}-Y[NMeA]NP[X14]L[Hyp]W[X15][Trp(1-CH2COOH)][NMeNle][NMeNle]LCG-NH2; thioether N-14)
